Results published in US7482344B2, “Tricyclic steroid hormone nuclear receptor modulators” (Eli Lilly and Company, priority 2003, dated 2009).

Biological target: T1, human GR (glucocorticoid receptor) (Homo sapiens, UniProt P04150)
T1 construct: expressed in transfected cells; host or cells: 293 cells
T1 sequence (P04150 1-777): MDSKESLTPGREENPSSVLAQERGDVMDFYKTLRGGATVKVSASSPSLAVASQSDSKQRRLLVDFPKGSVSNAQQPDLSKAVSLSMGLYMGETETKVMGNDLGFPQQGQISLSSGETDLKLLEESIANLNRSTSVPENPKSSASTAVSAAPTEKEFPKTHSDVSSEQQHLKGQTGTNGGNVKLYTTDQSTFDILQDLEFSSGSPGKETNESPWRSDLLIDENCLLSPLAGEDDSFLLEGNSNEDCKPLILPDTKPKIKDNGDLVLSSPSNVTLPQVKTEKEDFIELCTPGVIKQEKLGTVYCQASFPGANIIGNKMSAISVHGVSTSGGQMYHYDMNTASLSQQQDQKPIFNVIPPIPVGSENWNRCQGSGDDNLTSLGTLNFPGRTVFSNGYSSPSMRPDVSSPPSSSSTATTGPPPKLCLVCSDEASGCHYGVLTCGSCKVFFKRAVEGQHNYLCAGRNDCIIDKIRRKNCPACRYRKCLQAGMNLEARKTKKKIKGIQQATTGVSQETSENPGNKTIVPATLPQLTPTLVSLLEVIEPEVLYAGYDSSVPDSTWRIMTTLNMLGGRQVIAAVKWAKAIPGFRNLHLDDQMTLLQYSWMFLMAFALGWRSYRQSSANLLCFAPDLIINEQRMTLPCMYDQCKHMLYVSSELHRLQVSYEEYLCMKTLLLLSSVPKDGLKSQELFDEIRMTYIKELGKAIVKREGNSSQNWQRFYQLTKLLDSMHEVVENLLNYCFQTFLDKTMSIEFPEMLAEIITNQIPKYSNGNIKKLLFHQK
Assay: Alternative Binding Assay Protocol (Method 2), 293-GR lysate, 3H-dexamethasone competition
Settings: 0.3 nM 3H-dexamethasone
Protocol: Alternative Binding Assay Protocol for MR, GR, AR, and PR (Method 2):
Cell lysates from 293 cells overexpressing human GR (glucocorticoid receptor), AR (androgen receptor), MR (mineralocorticoid receptor) or PR (progesterone receptor) are used for competition binding assays to determine Ki values for test compounds. Briefly, competition binding assays are run in a buffer containing 20 mM Hepes, pH 7.6, 0.2 mM EDTA, 75 mM NaCl, 1.5 mM MgCl2, 20% glycerol, 20 mM sodium molybdate, 0.2 mM DTT, 20 ug/ml aprotinin and 20 ug/ml leupeptin, using either 0.3 nM ^3H-dexamethasone for GR binding, 0.36 nM ^3H-methyltrienolone for AR binding, 0.25 nM ^3H-aldosterone for MR binding, or 0.29 nM ^3H-methyltrienolone for PR binding, and either 20 ug 293-GR lysate, 22 ug 293-AR lysate, 20 ug 293-MR lysate or 40 ug 293-PR lysate per well. Competing compounds are added various concentrations in half-log increments. Non-specific binding is determined in the presence of 500 nM dexamethasone for GR binding, 500 nM aldosterone for MR binding, or 500 nM methyltrienolone for AR and PR binding. The binding reaction (140 μl) is incubated for overnight at 4° C. then 70 μl of cold charcoal-dextran buffer (containing per 50 ml of assay buffer, 0.75 g of charcoal and 0.25 g of dextran) is added to each reaction. Plates are mixed 8 minutes on an orbital shaker at 4° C. Plates are then centrifuged at 3,000 rpm at 4° C. for 10 minutes. An aliquot of 120 μl of the mix is transferred to another 96-well plate and 175 μl of Wallac Optiphase “Hisafe 3” scintillation fluid is added to each well. Plates are sealed and shaken vigorously on an orbital shaker. After an incubation of 2 hrs, plates are read in a Wallac Microbeta counter. The data is used to calculate an IC50 and % Inhibition at 10 μM. The Kd for ^3H-dexamethasone for GR binding, ^3H-methyltrienolone for AR binding, ^3H-aldosterone for MR binding, or ^3H-methyltrienolone for PR binding, is determined by saturation binding. The IC50 values for compounds are converted to Ki using Cheng-Prusoff equation and the Kd determined by saturation binding assay.

Row | Compound | Ki [nM]
1 | CC(=C1c2ccccc2Sc2ccccc21)c1cccc(NS(C)(=O)=O)c1 [Example 4, 9-[1-(3-methylsulfonoylaminophenyl)ethylene] thioxanthine] | < 500
2 | O=c1[nH]c2ccc(C=C3c4ccc(F)cc4Sc4cc(F)ccc43)cc2[nH]1 [Example 5, 5-(3,6-Difluoro-thioxanthen-9-ylidenemethyl)-1,3-dihydro-benzoimidazol-2-one] | < 1000
3 | CC(=C1c2ccccc2Sc2ccccc21)c1cccc(N)c1 [Example 6] | < 500
4 | CS(=O)(=O)Nc1cccc(C=C2c3ccccc3Sc3ccccc32)c1 [Example 8] | < 500
5 | Nc1cccc(C=C2c3ccccc3Sc3ccccc32)c1 [Example 9] | < 1000
6 | O=c1[nH]c2ccc(C=C3c4ccccc4Sc4ccccc43)cc2[nH]1 [Example 10] | < 10000
7 | O=c1[nH]c2cc(C=C3c4ccccc4Sc4ccccc43)ccc2o1 [Example 11] | < 500
8 | O=c1[nH]c2cc(C=C3c4ccccc4Sc4ccccc43)ccc2s1 [Example 12] | < 500
9 | O=c1[nH]c2cc(C=C3c4ccccc4Sc4ccccc43)ccc2n1CCN1CCOCC1 [Example 13] | < 1000
10 | CN1CCN(CCn2c(=O)[nH]c3cc(C=C4c5ccccc5Sc5ccccc54)ccc32)CC1 [Example 14] | < 10000
11 | Oc1ccccc1C=C1c2ccccc2Sc2ccccc21 [Example 15] | < 500
